Laboratory results from ChEMBL document CHEMBL4000216, “Lignan derivatives from Selaginella tamariscina and their nitric oxide inhibitory effects in LPS-stimulated RAW 264.7 cells” (Bioorg Med Chem Lett, 2017).
pIC50: −log10 of the molar value. Calls of active or inactive are those of the source. No cut-off for these calls is given here.

How the values were obtained:
RAW264.7 [1] = experiment: Cytotoxicity against mouse RAW264.7 cells assessed as reduction in cell viability at 3 to 60 uM after 24 hrs by MTT assay; format: cell-based; details: raw264.7, 24 h
RAW264.7 [2] = experiment: Inhibition of LPS-induced NO production in mouse RAW264.7 cells preincubated for 1 hr followed by LPS stimulation for 24 hrs by Griess assay; format: functional, cell-based
RAW264.7 [3] = experiment: Inhibition of LPS-induced NO production in mouse RAW264.7 cells at 3 to 60 uM preincubated for 1 hr followed by LPS stimulation for 24 hrs by Griess assay; format: functional, cell-based

Row | Compound | Activity (RAW264.7 [1]) | pIC50 (RAW264.7 [2]) | inhibition (RAW264.7 [3])
1 | COc1cc([C@@H]2Oc3c(OC)cc(C(C)=O)cc3[C@H]2CO)cc(OC)c1O | Non-Toxic | 4.49 | 
2 | COc1cc([C@H]2OC[C@H]3[C@@H]2CO[C@@H]3c2cc(OC)c(O[C@@H]3O[C@H](CO)[C@@H](O)[C@H](O)[C@H]3O)c(OC)c2)cc(OC)c1O[C@@H]1O[C@H](CO)[C@@H](O)[C@H](O)[C@H]1O [LIRIODENDRIN] | Non-Toxic |  | inactive
3 | COc1cc([C@@H]2Oc3c(OC)cc(C(C)=O)cc3[C@H]2CO[C@@H]2O[C@H](CO)[C@@H](O)[C@H](O)[C@H]2O)cc(OC)c1O | Non-Toxic | 4.25 | 
4 | COc1cc([C@@H]2Oc3c(OC)cc(C(C)=O)cc3[C@H]2CO)cc(OC)c1O[C@@H]1O[C@H](CO[C@@H]2O[C@H](CO)[C@@H](O)[C@H](O)[C@H]2O)[C@@H](O)[C@H](O)[C@H]1O | Non-Toxic |  | inactive
5 | O=C1/C(=C/c2ccc(O)c(O)c2)COc2cc(O)ccc21 [SAPPANONE A] |  | 5.03 | 
6 | COc1cc([C@@H]2Oc3c(OC)cc(C(C)=O)cc3[C@H]2CO)cc(OC)c1O[C@@H]1O[C@H](CO)[C@@H](O)[C@H](O)[C@H]1O | Non-Toxic | 4.49 | 
7 | COc1cc(C[C@@H](CO[C@@H]2O[C@H](CO)[C@@H](O)[C@H](O)[C@H]2O)c2cc(C(C)=O)cc(OC)c2O)cc(OC)c1O | Non-Toxic | 4.39 | 
